In patent US7772241B2, “Variolin derivatives and their use as antitumor agents” (Pharma Mar S.A., priority 2001, dated 2010):
Read-outs that look alike come from different tables or passages of the source. Values belong to the molecule of their own block, whether it stands above or below them.

Columns and labels:
HeLa = assay: Inhibition of cells growth by colorimetric (SRB) assay, HeLa
From the text: (§1) The finality of these assays is to interrupt the growth of a “in vitro” tumor cell culture by means a continued exhibition of the cells to the sample to be testing.
(§2) This form of the assay employs 96 well cell culture microplates of 9 mm diameter (Faircloth, 1988; Mosmann, 1983). Most of the cell lines are obtained from American Type Culture Collection (ATCC) derived from different human cancer types.
(§3) Cells are maintained in RPMI 1640 10% FBS, supplemented with 0.1 g/l penicillin and 0.1 g/l streptomycin sulphate and then incubated at 37° C., 5% CO2 and 98% humidity. For the experiments, cells were harvested from subconfluent cultures using trypsin and resuspended in fresh medium before plating.
(§4) Cells are seeded in 96 well microtiter plates, at 5×10^3 cells per well in aliquots of 195 μl medium, and they are allowed to attach to the plate surface by growing in drug free medium for 18 hours. Afterward, samples are added in aliquots of 5 μl in a ranging from 10 to 10^−8 μg/ml, dissolved in DMSO/EtOH/PBS (0.5:0.5:99). After 48 hours exposure, the antitumor effect are measured by the SRB methodology: cells are fixed by adding 50 μl of cold 50% (wt/vol) trichloroacetic acid (TCA) and incubating for 60 minutes at 4° C. Plates are washed with deionized water and dried. One hundred μl of SRB solution (0.4% wt/vol in 1% acetic acid) is added to each microtiter well and incubated for 10 minutes at room temperature. Unbound SRB is removed by washing with 1% acetic acid. Plates are air dried and bound stain is solubilized with Tris buffer. Optical densities are read on a automated spectrophotometric plate reader at a single wavelength of 490 nm.
(§5) The values for mean +/−SD of data from triplicate wells are calculated. Some parameters for cellular responses can be calculated: GI=growth inhibition, TGI=total growth inhibition (cytostatic effect) and LC=cell killing (cytotoxic effect).

HeLa-APL = assay: Inhibition of cells growth by colorimetric (SRB) assay, HeLa-APL
From the text: as §1, §2, §3, §4, §5

SK-MEL-28 = assay: Inhibition of cells growth by colorimetric (SRB) assay, SK-MEL-28
Outline: (§6)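 Human tumour cells in RPMI 1640 with 10% FBS were seeded at 5×10^3 cells/well, allowed to attach for 18 h, then exposed to samples at 10 to 10^−8 μg/ml for 48 h. Growth was measured by SRB staining after TCA fixation, with absorbance read at 490 nm in triplicate wells.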

LNCaP = assay: Inhibition of cells growth by colorimetric (SRB) assay, LNCaP; details: SRB assay, 48 hours exposure
Outline: as §6

HT-29 = assay: Inhibition of cells growth by colorimetric (SRB) assay, HT-29
Outline: as §6

A-549 = assay: Inhibition of cells growth by colorimetric (SRB) assay, A-549
Outline: as §6

IGROV-1 = assay: Inhibition of cells growth by colorimetric (SRB) assay, IGROV-1
Outline: as §6

K-562 = assay: Inhibition of cells growth by colorimetric (SRB) assay, K-562
Outline: as §6

LoVo = assay: Inhibition of cells growth by colorimetric (SRB) assay, LoVo
Outline: as §6

IGROV-ET = assay: Inhibition of cells growth by colorimetric (SRB) assay, IGROV-ET
Outline: as §6

DU-145 = assay: Inhibition of cells growth by colorimetric (SRB) assay, DU-145; details: SRB assay, 48 hours exposure
Outline: as §6

LoVo-Dox = assay: Inhibition of cells growth by colorimetric (SRB) assay, LoVo-Dox
Outline: as §6

SK-BR-3 = assay: Inhibition of cells growth by colorimetric (SRB) assay, SK-BR-3; details: for GI50 / CC50: Homo sapiens, SK-BR-3, 48 h
Outline: as §6

PANC-1 = assay: Inhibition of cells growth by colorimetric (SRB) assay, PANC-1
Outline: as §6

GI50 (HeLa; Homo sapiens, HeLa, 48 h, read-out: GI50 HELA, SRB assay, 48 hours exposure): 0.151 µM
GI50 (HeLa-APL; Homo sapiens, 48 h, read-out: GI50 HELA-APL, SRB assay, 48 hours exposure): 0.0989 µM
GI50 (SK-MEL-28; read-out: GI50 MEL-28, SRB assay, 48 hours exposure): 1.1 µM
GI50 (LNCaP; read-out: GI50 LN-caP): 0.602 µM
GI50 (HT-29; read-out: GI50 HT-29, SRB assay, 48 hours exposure): 6.18 µM
GI50 (A-549; read-out: GI50 A-549, SRB assay, 48 hours exposure): 1.15 µM
GI50 (K-562; read-out: GI50 K-562, SRB assay, 48 hours exposure): 2.87 µM
GI50 (LoVo; read-out: GI50 LOVO, SRB assay, 48 hours exposure): 0.55 µM
GI50 (DU-145; read-out: GI50 DU-145): 1.13 µM
GI50 (LoVo-Dox; read-out: GI50 LOVO-DOX, SRB assay, 48 hours exposure): 1.07 µM
GI50 (SK-BR-3; read-out: GI50 SK-BR-3, SRB assay, 48 hours exposure): 0.892 µM
GI50 (PANC-1; read-out: GI50 PANC-1, SRB assay, 48 hours exposure): 1.79 µM
SMILES: COc1ccnc2c1c(-c1ccnc(N)n1)c1ccnc(N)n12.Cl [Compound 116]
TGI HELA (HeLa; SRB assay, 48 hours exposure): 5.26E−07
CC50 (HeLa-APL; Homo sapiens, 48 h, read-out: LC50 HELA-APL, SRB assay, 48 hours exposure): 2.3 µM
TGI HELA-APL (HeLa-APL; SRB assay, 48 hours exposure): 2.17E−07
TGI MEL-28 (SK-MEL-28; SRB assay, 48 hours exposure): 2.11E−06
CC50 (SK-MEL-28; read-out: LC50 MEL-28, SRB assay, 48 hours exposure): 10.4 µM
TGI LN-caP (LNCaP): 1.21E−06
CC50 (LNCaP; read-out: LC50 LN-caP): 2.43 µM
TGI HT-29 (HT-29; SRB assay, 48 hours exposure): 1.88E−05
CC50 (HT-29; read-out: LC50 HT-29, SRB assay, 48 hours exposure): 26.3 µM
TGI A-549 (A-549; SRB assay, 48 hours exposure): 7.68E−06
CC50 (A-549; read-out: LC50 A-549, SRB assay, 48 hours exposure): 26.3 µM
TGI IGROV (IGROV-1; SRB assay, 48 hours exposure): 1.66E−06
GI50 (IGROV-1; read-out: GI50 IGROV, SRB assay, 48 hours exposure): 0.934 µM
CC50 (IGROV-1; read-out: LC50 IGROV, SRB assay, 48 hours exposure): 26.3 µM
TGI K-562 (K-562; SRB assay, 48 hours exposure): 2.12E−05
CC50 (K-562; read-out: LC50 K-562, SRB assay, 48 hours exposure): 26.3 µM
TGI LOVO (LoVo; SRB assay, 48 hours exposure): 1.22E−06
CC50 (LoVo; read-out: LC50 LOVO, SRB assay, 48 hours exposure): 26.3 µM
TGI IGROV-ET (IGROV-ET; SRB assay, 48 hours exposure): 2.50E−06
GI50 (IGROV-ET; read-out: GI50 IGROV-ET, SRB assay, 48 hours exposure): 1.37 µM
CC50 (IGROV-ET; read-out: LC50 IGROV-ET, SRB assay, 48 hours exposure): 26.3 µM
TGI DU-145 (DU-145): 2.54E−06
CC50 (DU-145; read-out: LC50 DU-145): 26.3 µM
TGI LOVO-DOX (LoVo-Dox; SRB assay, 48 hours exposure): 2.59E−06
CC50 (LoVo-Dox; read-out: LC50 LOVO-DOX, SRB assay, 48 hours exposure): 26.3 µM
CC50 (SK-BR-3; read-out: LC50 SK-BR-3, SRB assay, 48 hours exposure): 3.5 µM
TGI SK-BR-3 (SK-BR-3; SRB assay, 48 hours exposure): 1.55E−06
TGI PANC-1 (PANC-1; SRB assay, 48 hours exposure): 1.29E−05
CC50 (PANC-1; read-out: LC50 PANC-1, SRB assay, 48 hours exposure): 26.3 µM

GI50 (HeLa; read-out: HELA GI50, SRB assay, 48 hours exposure): 0.0576 µM
GI50 (HeLa-APL; read-out: HELA-APL GI50, SRB assay, 48 hours exposure): 0.0787 µM
GI50 (SK-MEL-28; read-out: MEL-28 GI50, SRB assay, 48 hours exposure): 3.08 µM
GI50 (LNCaP; read-out: LN-caP GI50): 0.109 µM
GI50 (HT-29; read-out: HT-29 GI50, SRB assay, 48 hours exposure): 0.457 µM
GI50 (A-549; read-out: A-549 GI50, SRB assay, 48 hours exposure): 0.707 µM
GI50 (K-562; read-out: K-562 GI50, SRB assay, 48 hours exposure): 2.85 µM
GI50 (LoVo; read-out: LOVO GI50, SRB assay, 48 hours exposure): 5.07 µM
GI50 (DU-145; read-out: DU-145 GI50): 0.257 µM
GI50 (LoVo-Dox; read-out: LOVO-DOX GI50, SRB assay, 48 hours exposure): 7.51 µM
GI50 (SK-BR-3; read-out: SK-BR-3 GI50, SRB assay, 48 hours exposure): 1.92 µM
GI50 (PANC-1; read-out: PANC-1 GI50, SRB assay, 48 hours exposure): 4.05 µM
SMILES: CSc1nccc(-c2c3c(O)ccnc3n3c(N)nccc23)n1.Cl [Compound 97]
HELA TGI (HeLa; SRB assay, 48 hours exposure): 1.28E−07
HELA-APL TGI (HeLa-APL; SRB assay, 48 hours exposure): 1.77E−07
CC50 (HeLa-APL; read-out: HELA-APL LC50, SRB assay, 48 hours exposure): 1.85 µM
CC50 (SK-MEL-28; Homo sapiens, SK-MEL-28, 48 h, read-out: MEL-28 LC50, SRB assay, 48 hours exposure): 18 µM
MEL-28 TGI (SK-MEL-28; SRB assay, 48 hours exposure): 7.43E−06
LN-caP TGI (LNCaP): 2.88E−07
CC50 (LNCaP; read-out: LN-caP LC50): 5.82 µM
CC50 (HT-29; Homo sapiens, HT-29, 48 h, read-out: HT-29 LC50, SRB assay, 48 hours exposure): 18.7 µM
HT-29 TGI (HT-29; SRB assay, 48 hours exposure): 4.85E−06
CC50 (A-549; Homo sapiens, A549, 48 h, read-out: A-549 LC50, SRB assay, 48 hours exposure): 22.3 µM
A-549 TGI (A-549; SRB assay, 48 hours exposure): 4.55E−06
CC50 (IGROV-1; Homo sapiens, IGROV-1, 48 h, read-out: IGROV LC50, SRB assay, 48 hours exposure): 27 µM
IGROV TGI (IGROV-1; SRB assay, 48 hours exposure): 3.10E−06
GI50 (IGROV-1; read-out: IGROV GI50, SRB assay, 48 hours exposure): 0.0931 µM
CC50 (K-562; Homo sapiens, K562, 48 h, read-out: K-562 LC50, SRB assay, 48 hours exposure): 24.4 µM
K-562 TGI (K-562; SRB assay, 48 hours exposure): 8.34E−06
CC50 (LoVo; Homo sapiens, LoVo, 48 h, read-out: LOVO LC50, SRB assay, 48 hours exposure): 27.7 µM
LOVO TGI (LoVo; SRB assay, 48 hours exposure): 1.27E−05
CC50 (IGROV-ET; Homo sapiens, 48 h, read-out: IGROV-ET LC50, SRB assay, 48 hours exposure): 27.7 µM
IGROV-ET TGI (IGROV-ET; SRB assay, 48 hours exposure): 8.12E−06
GI50 (IGROV-ET; read-out: IGROV-ET GI50, SRB assay, 48 hours exposure): 1.52 µM
DU-145 TGI (DU-145): 3.19E−06
CC50 (DU-145; read-out: DU-145 LC50): 12.8 µM
CC50 (LoVo-Dox; Homo sapiens, 48 h, read-out: LOVO-DOX LC50, SRB assay, 48 hours exposure): 27.7 µM
LOVO-DOX TGI (LoVo-Dox; SRB assay, 48 hours exposure): 1.93E−05
CC50 (SK-BR-3; read-out: SK-BR-3 LC50, SRB assay, 48 hours exposure): 23.6 µM
SK-BR-3 TGI (SK-BR-3; SRB assay, 48 hours exposure): 7.37E−06
CC50 (PANC-1; Homo sapiens, PANC-1, 48 h, read-out: PANC-1 LC50, SRB assay, 48 hours exposure): 24.6 µM
PANC-1 TGI (PANC-1; SRB assay, 48 hours exposure): 9.98E−06
